Assay results reported in article PMC8987110, “The Nutraceutical Alliin From Garlic Is a Novel Substrate of the Essential Amino Acid Transporter LAT1 (SLC7A5)” (Frontiers in Pharmacology, 2022).

How the values were obtained:
hLAT1 (LAT1, SLC7A5) [1] = biological target: T1, hLAT1 (LAT1, SLC7A5) (Homo sapiens, UniProt Q01650); test: inhibition of [3H]-histidine uptake in proteoliposomes, Lineweaver-Burk; assay type: biochemical
T1 construct: recombinant hLAT1 WT alone (no CD98/SLC3A2), expressed in E. coli Rosetta(DE3)pLysS, purified on HisTrap (His tag implied), reconstituted in proteoliposomes with cholesterol
T1 sequence (Q01650 whole entry): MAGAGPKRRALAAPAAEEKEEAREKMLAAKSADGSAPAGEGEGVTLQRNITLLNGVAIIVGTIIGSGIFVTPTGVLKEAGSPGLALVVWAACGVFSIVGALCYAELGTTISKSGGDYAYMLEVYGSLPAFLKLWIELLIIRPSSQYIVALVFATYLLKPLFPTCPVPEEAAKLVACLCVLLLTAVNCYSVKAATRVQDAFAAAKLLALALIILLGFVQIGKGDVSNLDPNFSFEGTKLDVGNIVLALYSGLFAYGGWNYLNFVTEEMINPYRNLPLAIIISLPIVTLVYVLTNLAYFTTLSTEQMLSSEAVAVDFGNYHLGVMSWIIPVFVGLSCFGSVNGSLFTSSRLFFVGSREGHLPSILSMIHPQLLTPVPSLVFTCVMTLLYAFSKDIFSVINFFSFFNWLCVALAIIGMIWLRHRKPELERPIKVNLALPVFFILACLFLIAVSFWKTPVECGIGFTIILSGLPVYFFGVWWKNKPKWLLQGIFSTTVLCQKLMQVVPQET

hLAT1 (LAT1, SLC7A5) [2] = biological target: T1, hLAT1 (LAT1, SLC7A5); test: inhibition of [3H]-histidine uptake in proteoliposomes, dose-response; assay type: biochemical

**Q.** Which results are given for C=CC[S@+]([O-])C[C@H](N)C(=O)O [alliin]?
**A.** Ki (hLAT1 (LAT1, SLC7A5) [1]): 50 ± 19 µM; IC50 (hLAT1 (LAT1, SLC7A5) [2]): 79 ± 9 µM
